This is an account of results in article PMC6222898, “Cinnamoyl-Oxaborole Amides: Synthesis and Their in Vitro Biological Activity” (Molecules : A Journal of Synthetic Chemistry and Natural …, 2018).

Values after ≈ are worked out from the molar mass of the structure shown. Where two headings read alike, the source gives them in different places.

The IC50 is the concentration needed to halve the response being measured. Broadly, the viability is a read-out of living cells in per cent, often relative to untreated cells. In general, MIC99 refers to the lowest concentration that inhibits either 99% of growth or 99% of the strains tested, depending on the study. A low value points to higher susceptibility. Broadly, the melting point is the temperature, or range, at which the solid turns liquid.

The test system of series [1] is Trypanosoma brucei brucei 427 trypomastigotes. As to conditions: cited from earlier work.
In another series the test system is Dd2. Details: method as in PMID 11310613. As to conditions: Figure 2; cited from earlier work.
In series [2] the test system is Trypanosoma brucei brucei 427 trypomastigotes. The series can be described thus: In vitro antitrypanosomal assay (resazurin viability). Type of series: cell-based. As to conditions: T. b. brucei 427, 24 h incubation. As for the experimental part: Trypanosoma brucei brucei 427 trypomastigotes were cultured in Iscove’sss Modified Dulbecco’s medium (IMDM, Lonza, Basel Switzerland) supplemented with 10% fetal calf serum, HMI-9 supplement, hypoxanthine, and penicillin/streptomycin at 37 °C in a 5% CO2 incubator. […] Reduction of resazurin to resorufin by viable parasites was assessed by fluorescence readings (excitation 560 nm, emission 590 nm) in a Spectramax M3 plate reader (Molecular Devices, San Jose, CA, USA). Fluorescence readings were converted to % parasite viability relative to the average readings obtained from untreated control wells. IC50 values were determined by plotting % viability vs. log[compound] and performing non-linear regression using GraphPad Prism (v. 5.02) software.
Background: Alamar Blue is a resazurin reagent that responds to reducing activity.

Series [3] in a line: In vitro cytotoxicity assay (resazurin). The format is cell-based. The conditions noted are these: human, HeLa cells; 20 μM compound; 48 h exposure, 24 h. As for the experimental part:
HeLa cells (Cellonex, Johannesburg, South Africa) seeded in 96-well plates were incubated with 20 μM test compounds for 24 h and cell viability assessed using a resazurin fluorescence assay as previously described.

Series [4] relates to Trichomonas vaginalis G3 strain. The series can be described thus: In vitro antitrichomonal assay (hemocytometer counts). The conditions noted are these: 24 h, read-out: IC50 T. vaginalis. The format is cell-based.
The subject of series [5] is Mycobacterium tuberculosis H37Rv. The experiment in a line: In vitro antimycobacterial broth microdilution assay. The format is cell-based. As to conditions: concentration inhibiting mycobacterial growth by 99%. In general terms: Dilution methods test growth across graded concentrations, often in twofold steps.

For the compound `CC1(C)OB(O)c2cc(NC(=O)c3ccc(F)cc3C(F)(F)F)ccc21` [Compound 1, SCYX-7158], in series [1] (T. b. brucei, footnote a: IC50 in μg/mL), the IC50 antitrypanosomal was 0.292 ± 0.019 ^a μg/mL.
`O=C(CCc1ccccc1)Nc1ccc2c(c1)B(O)OC2` [Compound 2]: the IC50 antitrypanosomal in series [1] (T. b. brucei S427, footnote b: IC50 in μg/mL) is 0.14 ^b μg/mL.
Consider `Cc1ccc(CC(=O)Nc2ccc(NC(=O)/C=C/c3ccc(OCc4ccccc4)cc3)cc2C(=O)c2ccccc2)cc1` [Compound 4, 2,5-bisacylaminobenzonephone], for which the IC50 in the series with Dd2 is 650 nM.
For `O=C(/C=C/c1ccccc1)Nc1ccc2c(c1)B(O)OC2` [Compound 5a, (E)-N-(1-Hydroxy-1,3-dihydrobenzo[c][1,2]oxaborol-6-yl)cinnamamide], the melting point lay in the range of 182 to 184 °C. The same compound gave an IC50 in series [2] of 130 ± 20 nM. In series [3], the viability at 48 h, 20 µM was found to be 108 ± 5.35%. Also, the IC50 in series [4] worked out at 15300 ± 330 nM. This compound also yielded an MIC99 in series [5] of 61.8 µM (≈ 17.2 µg/mL).
Compound `O=C(/C=C/c1cccc([N+](=O)[O-])c1)Nc1ccc2c(c1)B(O)OC2` [Compound 5b, (E)-N-(1-Hydroxy-1,3-dihydrobenzo[c][1,2]oxaborol-6-yl)-3-(3-nitrophenyl)acrylamide] came in with a melting point of 176 to 178 °C. The IC50 in series [2] was determined as 130 ± 10 nM. Moreover, the viability at 48 h, 20 µM in series [3] came to 87 ± 1.59%. Moreover, in series [4], the IC50 worked out at 41700 ± 230 nM. In addition, the MIC99 in series [5] worked out at 107 µM (≈ 34.7 µg/mL).
`O=C(/C=C/c1ccc([N+](=O)[O-])cc1)Nc1ccc2c(c1)B(O)OC2` [Compound 5c, (E)-N-(1-Hydroxy-1,3-dihydrobenzo[c][1,2]oxaborol-6-yl)-3-(4-nitrophenyl)acrylamide]: the melting point is 176 to 180 °C. The same compound displayed an IC50 in series [2] of 920 ± 40 nM. Besides, in series [3], the viability at 48 h, 20 µM stood at 94.3 ± 28.8%. Also, the IC50 in series [4] worked out at 10200 ± 560 nM. In series [5], the MIC99 is 26.5 µM (≈ 8.59 µg/mL).
Taken in the same sequence, the figures for `O=C(/C=C/c1ccc(Br)cc1)Nc1ccc2c(c1)B(O)OC2` [Compound 5d, (E)-3-(4-Bromophenyl)-N-(1-hydroxy-1,3-dihydrobenzo[c][1,2]oxaborol-6-yl)acrylamide] were 206 to 210 °C, 470 ± 40 nM, 89.9 ± 5.12%, 12600 ± 280 nM and 10.7 µM (≈ 3.83 µg/mL).
Taken in the same sequence, the figures for `COc1ccc(/C=C/C(=O)Nc2ccc3c(c2)B(O)OC3)cc1` [Compound 5e, (E)-N-(1-Hydroxy-1,3-dihydrobenzo[c][1,2]oxaborol-6-yl)-3-(4-methoxyphenyl)acrylamide] were 190 to 192 °C, 660 ± 30 nM, 102 ± 2.34%, 11700 ± 280 nM and 18.7 µM (≈ 5.78 µg/mL).
`COc1ccc(/C=C/C(=O)Nc2ccc3c(c2)B(O)OC3)cc1OC` [Compound 5f, (E)-3-(3,4-Dimethoxyphenyl)-N-(1-hydroxy-1,3-dihydrobenzo[c][1,2]oxaborol-6-yl)acrylamide] returned a melting point of 188 to 190 °C. For the same compound, in series [2], the IC50 stood at 8710 ± 650 nM. Besides, the viability at 48 h, 20 µM in series [3] amounted to 109.9 ± 0.84%. Besides, the IC50 in series [4] is over 50000 nM.
Take `O=C(/C=C/c1ccc2c(c1)OCO2)Nc1ccc2c(c1)B(O)OC2` [Compound 5g, (E)-3-(Benzo[d][1,3]-6-dioxol-5-yl)-N-(1-hydroxy-1,3-dihydrobenzo[c][1,2]oxaborol-6-yl)acrylamide]: the melting point was 145 to 148 °C. Also, the IC50 in series [2] amounted to 86 ± 2 nM. The viability at 48 h, 20 µM in series [3] was 132 ± 26.6%. In series [4], the IC50 is 22800 ± 1020 nM. In series [5], the MIC99 is 40.7 µM (≈ 13.2 µg/mL).
For `CC[C@H]1CN2CCc3cc(OC)c(OC)cc3[C@@H]2C[C@@H]1C[C@H]1NCCc2cc(OC)c(OC)cc21` [EM, emetine, reference compound], the viability at 48 h, 20 µM in series [3] is 3.19%.
As for `Cc1ncc([N+](=O)[O-])n1CCO` [ME, metronidazole, reference compound], the IC50 in series [4] turned out to be 530 nM.
The compound `N=C(N)c1ccc(OCCCCCOc2ccc(C(=N)N)cc2)cc1` [PE, pentamidine, reference compound] gave an IC50 in series [2] of 1.2 ± 0.1 nM.
As to `CO[C@H]1/C=C/O[C@@]2(C)Oc3c(C)c(O)c4c(O)c(c(/C=N/N5CCN(C)CC5)c(O)c4c3C2=O)NC(=O)/C(C)=C\C=C\[C@H](C)[C@H](O)[C@@H](C)[C@@H](O)[C@@H](C)[C@H](OC(C)=O)[C@@H]1C` [RE, rifampicin, reference compound], the MIC99 in series [5] came to 0.003 µM (≈ 0.00247 µg/mL).
